# In ChEMBL document CHEMBL1201862, “PubChem BioAssay data set” (2004):
# Activity calls are given as the source filed them.
# Tests used:
# [1] = molecular target: Paired box protein Pax-8 (Homo sapiens, UniProt Q06710); test: inhibitors of PAX8-driven TPO luciferase reporter, dose response, RMG-I cells, cherry-pick (AID 687027); type: functional, cell-based;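 also: luciferase reporter driven by Pax8 target thyroperoxidase promoter measured by SteadyGlo luminescence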
# [2] = A2780 ovarian cancer cell cytotoxicity, dose response, cytotoxicity control, plate reader, dry powder samples (AID 743046); type: functional, cell-based
# [3] = NIH:OVCAR-3 ovarian cancer cell cytotoxicity, dose response, PAX8 inhibitor project, plate reader, dry powder samples (AID 743044); type: functional, cell-based
# [4] = cytotoxicity in OVCAR8 ovarian cancer cells, dose response, PAX8 project, cell-based, plate reader, dry powder samples (AID 743197); type: functional; settings: OVCAR-8
# [5] = molecular target: T1, Replicative DNA helicase DnaB (Mycobacterium tuberculosis, UniProt P9WMR3); test: DnaB intein splicing inhibitors, dose response, biochemical, cell-free fluorescence (AID 449749); type: functional
# T1 sequence (P9WMR3 whole entry): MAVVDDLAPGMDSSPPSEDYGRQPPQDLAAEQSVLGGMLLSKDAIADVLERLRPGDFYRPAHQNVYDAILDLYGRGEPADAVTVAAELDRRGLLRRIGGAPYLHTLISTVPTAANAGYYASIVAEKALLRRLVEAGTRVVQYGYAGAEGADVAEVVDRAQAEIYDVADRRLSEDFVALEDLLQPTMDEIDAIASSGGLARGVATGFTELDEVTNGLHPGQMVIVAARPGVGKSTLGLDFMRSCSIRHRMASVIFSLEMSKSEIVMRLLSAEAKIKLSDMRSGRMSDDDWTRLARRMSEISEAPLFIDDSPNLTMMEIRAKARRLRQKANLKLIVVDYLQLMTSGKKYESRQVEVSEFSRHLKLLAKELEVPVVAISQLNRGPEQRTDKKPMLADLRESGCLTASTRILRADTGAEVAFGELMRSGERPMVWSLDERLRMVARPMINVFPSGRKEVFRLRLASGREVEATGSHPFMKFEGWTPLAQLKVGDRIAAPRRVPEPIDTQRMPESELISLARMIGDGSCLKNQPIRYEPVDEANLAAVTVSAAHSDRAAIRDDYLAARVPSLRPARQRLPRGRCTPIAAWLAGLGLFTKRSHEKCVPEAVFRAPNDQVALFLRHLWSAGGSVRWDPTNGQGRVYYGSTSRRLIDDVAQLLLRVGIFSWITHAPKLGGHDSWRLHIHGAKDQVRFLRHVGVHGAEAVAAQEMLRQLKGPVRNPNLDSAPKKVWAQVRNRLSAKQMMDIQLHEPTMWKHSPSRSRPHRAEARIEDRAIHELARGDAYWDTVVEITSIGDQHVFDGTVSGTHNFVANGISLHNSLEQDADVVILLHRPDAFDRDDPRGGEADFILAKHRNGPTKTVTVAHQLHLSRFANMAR
# [6] = molecular target: T2, Protein RecA (Mycobacterium tuberculosis, UniProt P9WHJ3); test: Fluorescence Cell-Free Homogeneous Dose Retest to Identify Inhibitors of RecA-Intein Splicing Activity. [Related pubchem assays (depositor defined):AID2097, AID2223, AID489010, AID492950]; type: functional
# T2 sequence (P9WHJ3 whole entry): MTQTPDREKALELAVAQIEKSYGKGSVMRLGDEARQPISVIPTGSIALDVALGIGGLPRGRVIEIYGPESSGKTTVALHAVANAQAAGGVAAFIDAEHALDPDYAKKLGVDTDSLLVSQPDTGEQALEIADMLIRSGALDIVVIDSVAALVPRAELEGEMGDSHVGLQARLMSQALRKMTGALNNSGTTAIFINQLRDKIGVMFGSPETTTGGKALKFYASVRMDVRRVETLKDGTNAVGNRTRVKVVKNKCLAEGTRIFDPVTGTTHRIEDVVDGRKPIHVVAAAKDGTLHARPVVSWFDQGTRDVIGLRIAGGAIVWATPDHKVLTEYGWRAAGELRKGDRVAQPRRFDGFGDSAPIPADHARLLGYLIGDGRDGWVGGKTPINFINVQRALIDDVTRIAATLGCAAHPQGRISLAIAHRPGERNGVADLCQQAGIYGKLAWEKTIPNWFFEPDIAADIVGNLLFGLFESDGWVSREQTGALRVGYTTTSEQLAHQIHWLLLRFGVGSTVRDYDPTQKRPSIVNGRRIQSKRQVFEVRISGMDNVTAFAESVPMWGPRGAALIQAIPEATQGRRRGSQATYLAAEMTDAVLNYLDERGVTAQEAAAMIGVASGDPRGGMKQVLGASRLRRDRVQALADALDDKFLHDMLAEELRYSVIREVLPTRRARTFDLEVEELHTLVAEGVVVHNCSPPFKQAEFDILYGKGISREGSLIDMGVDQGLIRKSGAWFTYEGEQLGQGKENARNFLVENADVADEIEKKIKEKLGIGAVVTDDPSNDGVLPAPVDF
# [7] = molecular target: Genome polyprotein (dengue virus type 2, UniProt P29990); test: Dengue-2 NS5 methyltransferase inhibitors, primary screen, biochemical, confirmation dose response (AID 588689); type: functional
# [8] = molecular target: T3, Polyadenylate-binding protein 1 (Homo sapiens, UniProt P11940); test: PABP1 MLLE–PAM2 interaction inhibitors, dose response, miRNA deadenylation inhibitor project, biochemical, fluorescence polarization, Cy5-PAM2 peptide, secondary (AID 602260); type: functional; settings: read-out: IC50_Mean
# [9] = molecular target: T3, Polyadenylate-binding protein 1; test: PABP1 MLLE–PAM2 binding inhibitor potency, dose response, biochemical, fluorescence polarization, FITC-PAM2 peptide (AID 602259); type: functional; settings: read-out: IC50_Mean
# [10] = molecular target: T4, Tyrosyl-DNA phosphodiesterase 2 (Homo sapiens, UniProt O95551); test: human TDP2 enzyme inhibitors, dose response, biochemical, epi absorbance, IC50 (AID 743297)
# T4 sequence (O95551 whole entry): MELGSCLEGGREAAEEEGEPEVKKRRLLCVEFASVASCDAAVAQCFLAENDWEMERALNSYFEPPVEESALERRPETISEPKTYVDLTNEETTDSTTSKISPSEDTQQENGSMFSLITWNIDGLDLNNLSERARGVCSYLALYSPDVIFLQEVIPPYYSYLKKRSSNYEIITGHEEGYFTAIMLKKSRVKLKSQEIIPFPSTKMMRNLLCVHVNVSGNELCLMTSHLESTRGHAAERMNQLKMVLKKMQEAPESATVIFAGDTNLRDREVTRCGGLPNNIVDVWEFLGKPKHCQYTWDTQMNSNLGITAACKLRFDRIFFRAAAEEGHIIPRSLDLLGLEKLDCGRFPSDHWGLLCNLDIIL
# [11] = inhibitors of PGC1a acetylation in cells, dose response, cell-based, cherry-picked samples (AID 720514); type: functional;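 also: potency may reflect raised or lowered acetylation signal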
# [12] = Concentration-dependent survival of SW480 colon cancer line, luminescence detection with CellTiter-Glo, half-maximal inhibitory concentration (AID 1117338); type: functional
# [13] = RKO cell viability reduction, dose response, CellTiter-Glo luminescence (AID 1117322); type: functional
# [14] = cytotoxicity toward HCT116 cells – cell-based, CellTiter-Glo luminescence, IC50, dose response (AID 1117332); type: functional; settings: HCT-116
# [15] = SNU-C1 cell viability reduction, dose response, CellTiter-Glo luminescence (AID 1117323); type: functional, cell-based
# [16] = cytotoxicity toward Colo320 cells – cell-based, CellTiter-Glo luminescence, IC50, dose response (AID 1117334); type: functional; settings: COLO 320
# [17] = cytotoxicity toward HT-29 cells – cell-based, CellTiter-Glo luminescence, IC50, dose response (AID 1117330); type: functional
# [18] = CellTiter-Glo luminescent dose response of DLD-1 viability loss (AID 1117352); type: functional
# Sequence of Paired box protein Pax-8 (Q06710 whole entry): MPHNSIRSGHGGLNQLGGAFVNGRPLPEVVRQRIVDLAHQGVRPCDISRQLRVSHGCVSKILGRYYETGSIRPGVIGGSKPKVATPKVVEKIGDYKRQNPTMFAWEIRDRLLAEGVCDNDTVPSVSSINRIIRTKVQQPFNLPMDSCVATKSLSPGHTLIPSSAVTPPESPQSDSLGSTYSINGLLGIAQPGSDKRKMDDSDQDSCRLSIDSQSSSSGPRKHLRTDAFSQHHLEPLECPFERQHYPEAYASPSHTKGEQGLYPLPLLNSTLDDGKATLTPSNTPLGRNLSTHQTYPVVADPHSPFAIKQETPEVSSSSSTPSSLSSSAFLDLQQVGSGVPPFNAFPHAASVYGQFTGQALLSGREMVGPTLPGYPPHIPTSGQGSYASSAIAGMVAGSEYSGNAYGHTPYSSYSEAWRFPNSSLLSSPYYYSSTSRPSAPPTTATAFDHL
# T3 sequence (P11940 whole entry): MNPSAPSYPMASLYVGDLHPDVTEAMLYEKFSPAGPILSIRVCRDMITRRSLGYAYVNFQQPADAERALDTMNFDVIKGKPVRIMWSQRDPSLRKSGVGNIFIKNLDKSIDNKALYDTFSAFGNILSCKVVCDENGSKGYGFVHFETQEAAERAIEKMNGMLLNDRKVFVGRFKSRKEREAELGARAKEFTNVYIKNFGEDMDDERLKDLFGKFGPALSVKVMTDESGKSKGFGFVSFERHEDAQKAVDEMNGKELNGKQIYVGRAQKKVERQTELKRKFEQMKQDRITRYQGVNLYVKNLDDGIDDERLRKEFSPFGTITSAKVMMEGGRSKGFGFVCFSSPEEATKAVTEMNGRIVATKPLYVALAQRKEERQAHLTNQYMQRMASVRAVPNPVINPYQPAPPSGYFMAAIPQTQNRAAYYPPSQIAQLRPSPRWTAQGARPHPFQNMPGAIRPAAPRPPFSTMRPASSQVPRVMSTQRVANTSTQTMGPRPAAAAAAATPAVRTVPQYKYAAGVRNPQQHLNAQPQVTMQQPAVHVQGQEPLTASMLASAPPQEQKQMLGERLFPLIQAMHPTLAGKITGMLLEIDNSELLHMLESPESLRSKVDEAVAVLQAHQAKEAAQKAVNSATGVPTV
# Sequence of Genome polyprotein (P29990 2492-3391 limits assumed): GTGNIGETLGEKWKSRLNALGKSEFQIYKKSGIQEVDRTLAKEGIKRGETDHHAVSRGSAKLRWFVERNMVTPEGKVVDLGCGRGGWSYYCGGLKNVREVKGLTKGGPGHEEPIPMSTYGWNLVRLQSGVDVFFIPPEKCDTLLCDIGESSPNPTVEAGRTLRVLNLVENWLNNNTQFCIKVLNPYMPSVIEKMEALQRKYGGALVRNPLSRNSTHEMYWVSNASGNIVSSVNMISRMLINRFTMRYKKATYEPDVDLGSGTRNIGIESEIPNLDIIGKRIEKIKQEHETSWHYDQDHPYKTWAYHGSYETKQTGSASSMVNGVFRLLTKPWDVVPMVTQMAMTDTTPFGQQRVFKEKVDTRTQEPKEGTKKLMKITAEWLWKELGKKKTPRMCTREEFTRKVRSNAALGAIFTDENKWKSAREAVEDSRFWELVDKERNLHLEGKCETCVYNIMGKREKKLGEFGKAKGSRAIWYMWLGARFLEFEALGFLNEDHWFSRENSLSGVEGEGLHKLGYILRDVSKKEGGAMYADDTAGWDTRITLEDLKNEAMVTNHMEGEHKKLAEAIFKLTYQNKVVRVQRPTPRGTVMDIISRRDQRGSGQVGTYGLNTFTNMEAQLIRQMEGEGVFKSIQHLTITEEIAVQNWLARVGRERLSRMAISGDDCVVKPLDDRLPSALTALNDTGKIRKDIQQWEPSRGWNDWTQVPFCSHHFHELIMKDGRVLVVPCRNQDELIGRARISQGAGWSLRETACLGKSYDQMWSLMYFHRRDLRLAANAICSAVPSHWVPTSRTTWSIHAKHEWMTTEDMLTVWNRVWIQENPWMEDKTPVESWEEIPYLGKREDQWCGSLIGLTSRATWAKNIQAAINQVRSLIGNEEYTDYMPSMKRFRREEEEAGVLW
structure (smiles),measurement,setting,value
C[C@@H]1CCCCO[C@@H](CN(C)Cc2ccc(Cl)c(Cl)c2)[C@H](C)CN([C@H](C)CO)C(=O)c2cc(NC(=O)c3ccccc3)ccc2O1,AC50,[1],14 µM (active)
same,AC50,[2],33.8 µM (active)
same,AC50,[3],3.16 µM (active)
same,AC50,[4],27.5 µM (active)
C[C@@H]1CN([C@@H](C)CO)C(=O)Cc2cc(NC(=O)NC3CCCCC3)ccc2O[C@@H]1CN(C)Cc1ccc(-c2ccccc2)cc1,AC50,[1],30.6 µM (active)
same,AC50,[2],0.296 µM (active)
Cc1[nH]n(-c2ccccc2)c(=O)c1C(c1ccc(C(=O)O)cc1)c1c(C)[nH]n(-c2ccccc2)c1=O,AC50,[5],0.915 µM (active)
same,EC50,[6],0.656 µM (active)
same,IC50,[7],20.9 µM (active)
same,IC50,[8],> 66 µM (inactive)
same,IC50,[9],> 66 µM (inactive)
same,IC50,[10],> 0.528 µM (active)
O=C(Nc1cccc(F)c1)N1CC(=O)N2[C@@H](CO)[C@@H](c3ccc(C#Cc4cccnc4)cc3)[C@@H]2C1,AC50,[11],4.54 µM (active)
O=C(O)c1ccccc1S [THIOSALICYLIC ACID],IC50,[12],> 20 µM (inactive)
same,IC50,[13],> 20 µM (inactive)
same,IC50,[14],> 20 µM (inactive)
same,IC50,[15],> 20 µM (inactive)
same,IC50,[16],> 20 µM (inactive)
same,IC50,[17],> 20 µM (inactive)
same,IC50,[18],> 20 µM (inactive)
